Literature values as cited in US20060122095A1, “Mucus formulation for mucosal surfaces and uses thereof” (priority 2002, published 2006).
Entries after “also recorded” stand apart in the source; their conditions may differ.

Key:
[1] = test system: different cell types in culture; details: even at extremely high concentrations
HIV-1 [2] = test system: HIV-1
HIV-1 [3] = details: previous evaluations of UC-781 formulations
HIV-1 [4] = details: after complete washing away of unbound drug
[5] = multiple routes of administration, different species of animals

Question: With `CC(C)=CCOc1cc(NC(=S)c2ccoc2C)ccc1Cl` [UC-781, N-[4-chloro-3-(3-methyl-2-butenyloxy)phenyl]] as the molecule, how does the “toxic effect on cells in culture” value [1] read?
Answer: no toxic effect

Question: What about the “effectiveness against strains of HIV-1 that encode known NNRTI resistance mutations” value (HIV-1 [2]; compared with wild type isolates) of the same molecule?
Answer: equally effective

Question: What about the “HIV-1 inhibition effect, inactivating concentration” value (HIV-1 [2]; primary wild type isolates of clades A through G, in vitro) of the same molecule?
Answer: nanomolar range; also recorded: nanomolar concentrations

Question: And the “activity in explant model” value (HIV-1 [3])?
Answer: remained active

Question: What about the “resistance of pre-treated cells to infection (memory effect)” value (HIV-1 [4]) of the same molecule?
Answer: remained resistant to infection for several days

Question: What about the solubility in water of the same molecule?
Answer: limited solubility in water

Question: And the bioavailability [5]?
Answer: poor bioavailability
